Laboratory results from ChEMBL document CHEMBL1137891, “5-Carboxamido-1,3,2-dioxaphosphorinanes, potent inhibitors of MTP” (Bioorg Med Chem Lett, 2004).

Tests used:
[1] = tested on: HepG2; test: inhibitory activity against secretion of lipoproteins apoB and apoA1 from human HepG2 cell lines; type: functional; conditions: read-out: ED50 (the source's name)
[2] = molecular target: T1, Microsomal triglyceride transfer protein large subunit (Homo sapiens, UniProt P55157); test: In vitro inhibitory concentration against human Microsomal triglyceride transfer protein; type: functional
T1 sequence (P55157 whole entry): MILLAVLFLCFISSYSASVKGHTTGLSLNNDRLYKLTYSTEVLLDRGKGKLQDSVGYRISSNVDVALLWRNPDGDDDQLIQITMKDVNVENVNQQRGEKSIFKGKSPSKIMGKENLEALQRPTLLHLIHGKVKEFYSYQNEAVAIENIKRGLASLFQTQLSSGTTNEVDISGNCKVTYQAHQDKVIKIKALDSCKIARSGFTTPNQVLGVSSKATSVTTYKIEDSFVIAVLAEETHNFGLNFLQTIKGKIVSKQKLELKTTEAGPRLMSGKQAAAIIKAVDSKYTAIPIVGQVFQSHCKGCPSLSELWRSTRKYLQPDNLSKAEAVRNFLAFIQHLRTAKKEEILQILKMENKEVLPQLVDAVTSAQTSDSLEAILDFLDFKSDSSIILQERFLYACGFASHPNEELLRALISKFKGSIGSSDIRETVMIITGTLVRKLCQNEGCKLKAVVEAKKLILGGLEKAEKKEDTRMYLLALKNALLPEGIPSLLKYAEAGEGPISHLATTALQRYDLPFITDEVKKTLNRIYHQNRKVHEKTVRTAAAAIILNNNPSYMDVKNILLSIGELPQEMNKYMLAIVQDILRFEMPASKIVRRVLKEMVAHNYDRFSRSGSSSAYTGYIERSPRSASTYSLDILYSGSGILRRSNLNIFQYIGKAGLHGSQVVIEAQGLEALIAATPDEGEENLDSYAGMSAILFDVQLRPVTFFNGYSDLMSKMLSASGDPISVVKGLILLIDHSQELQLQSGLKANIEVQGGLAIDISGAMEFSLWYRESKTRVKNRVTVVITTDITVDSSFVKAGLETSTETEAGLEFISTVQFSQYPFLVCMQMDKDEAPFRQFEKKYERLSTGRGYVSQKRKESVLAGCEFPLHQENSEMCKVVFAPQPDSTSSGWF

[3] = tested on: Cricetinae gen. sp.; test: Percentage change in serum HDL cholesterol in male hamster after 3-day treatment at 15 mpk; type: functional
[4] = tested on: Cricetinae gen. sp.; test: Concentration required for change in serum HDL cholesterol in male hamster after 3-day treatment; type: functional, Cricetulus griseus; conditions: 72 h
[5] = organism: Mesocricetus auratus; test: Percentage change in serum HDL cholesterol in male hamster after 3-day treatment at 30 mpk
[6] = molecular target: T1, Microsomal triglyceride transfer protein large subunit; test: In vitro inhibition concentration required against triglyceride transfer of human Microsomal triglyceride transfer protein; type: functional; conditions: read-out: I50
[7] = tested on: Cricetinae gen. sp.; test: Percentage change in serum HDL cholesterol in male hamster after 3-day treatment at 20 mpk; type: functional, Cricetulus griseus

SMILES	EC50 ([1]; Homo sapiens, HepG2)	IC50 [2]	Activity [3]	Activity [5]	other results
O=C(N[C@H]1CC[N@+]([O-])(CCCCC2(C(=O)NCC(F)(F)F)c3ccccc3-c3ccccc32)CC1)c1ccccc1-c1ccc(C(F)(F)F)cc1	0.0009 µM	0.005 µM	-77%		
O=C(NC1COP(=O)(CCCCC2(C(=O)NCC(F)(F)F)c3ccccc3-c3ccccc32)OC1)c1ccccc1-c1nc2ccccc2s1 (stereo not drawn)	0.0075 µM	0.009 µM	-76%		ED50 [4]: 4 mg/kg
O=C(NC1COP(=O)(CCCCC2(C(=O)NCC(F)(F)F)c3ccccc3-c3ccccc32)OC1)c1ccccc1N1CCOCC1 (stereo not drawn)		0.012 µM	-3%		
O=C(NC1COP(=O)(CCCCC2(C(=O)NCC(F)(F)F)c3ccccc3-c3ccccc32)OC1)OCc1ccccc1 (stereo not drawn)	0.04 µM	0.014 µM			
CCCCOP(=O)(CCCCC1(C(=O)NCC(F)(F)F)c2ccccc2-c2ccccc21)OCCCC	0.007 µM	0.022 µM		-5%	
O=C(NC1COP(=O)(CCCCC2(C(=O)NCC(F)(F)F)c3ccccc3-c3ccccc32)OC1)OCc1ccccc1 (cis isomer)					IC50 [6]: 0.21 µM
O=C(NC1COP(=O)(CCCCC2(C(=O)NCC(F)(F)F)c3ccccc3-c3ccccc32)OC1)c1ccccc1-c1ccc(C(F)(F)F)cc1 (cis isomer)		0.044 µM			EC50 [1]: 0.018 µM; Activity [7]: -4%
O=C(NC1COP(=O)(CCCCC2(C(=O)NCC(F)(F)F)c3ccccc3-c3ccccc32)OC1)c1ccccc1-c1ccc(C(F)(F)F)cc1 (stereo in doubt; 3a)		0.007 µM		-73%	EC50 [1]: 0.00065 µM; ED50 [4]: 3.3 mg/kg
O=C(NC1COP(=O)(CCCCC2(C(=O)NCC(F)(F)F)c3ccccc3-c3ccccc32)OC1)c1ccccc1-c1ccccn1 (trans isomer)	0.079 µM	< 0.01 µM	-19%		
O=C(NC1COP(=O)(CCCCC2(C(=O)NCC(F)(F)F)c3ccccc3-c3ccccc32)OC1)c1ccccc1 (trans isomer)	0.023 µM	0.011 µM	-12%		
O=C(NC1COP(=O)(CCCCC2(C(=O)NCC(F)(F)F)c3ccccc3-c3ccccc32)OC1)c1ccccc1-c1nc2ccccc2o1 (trans isomer)		0.003 µM		-13%	
O=C(NC1CCN(CCCCC2(C(=O)NCC(F)(F)F)c3ccccc3-c3ccccc32)CC1)c1ccccc1-c1ccc(C(F)(F)F)cc1 [LOMITAPIDE]	0.0008 µM			-92%	ED50 [4]: 2 mg/kg
